Results taken from patent US9956187B2 (priority 2014, dated 2018).
Structures can show the parent of a compound that is named as a salt.

What was measured:
[1] = target: kappa opioid receptor (Homo sapiens, UniProt P41145); type: biochemical; set-up: purchased Millipore (Billerica, Mass.); host or cells: Chem-5 mammalian cell line; settings: ligand alone
Source text: Membrane preparations of recombinant human kappa opioid receptor expressed in the mammalian cell line Chem-5 were obtained from Millipore (Billerica, Mass.). The effects of specific kappa opioid receptor ligands on the activation of the recombinant receptor were investigated by measuring G protein activation in vitro.
The assay reports the initial rates of activation of heterotrimeric G proteins (Gαii1β1γ2) on an agonist-bound receptor by measuring the accumulation of [^35S]-GTPγS (non-hydrolyzable analog of GTP) bound to the activated Gαi1 subunit. […] The G protein activation assay was conducted as follows (final concentrations in 50 μL reaction mixture are given in parentheses): the membrane sample was diluted into ice-cold 10 mM 3-(N-morpholino)propanesulfonic acid (MOPS) buffer to reach a protein concentration of 40 ng/μL. 10 μL of the diluted dispersion were dispensed into pre-siliconized glass tubes and mixed with the ligand in MOPS buffer containing 0.1% (w/v) BSA. Upon addition of a mixture of Gαi1 (100 nM) and Gβ1γ2 (500 nM), the tubes were incubated on ice for 30 minutes. The reaction was started by addition of MOPS buffer pH=7.5 (50 mM), EDTA (1 mM), MgCl2 (3 mM), GDP (4 μM), BSA (0.3% w/v), NaCl (100 mM), DTT (1 mM), and [^35S]-GTPγS (5 nM, 1250 Ci/mmol) followed by rapid transfer of the tubes to a water bath at 30° C. The incubation continued for 45 minutes. The reaction was terminated by addition of 2 mL of ice-cold stop solution, TNMg (20 mM Tris-HCl pH=8.0, 100 mM NaCl, and 25 mM MgCl2). The reaction mixture was rapidly filtered through nitrocellulose filters (Millipore). Filters were washed four times with 2 mL each of cold TNMg buffer, dried, placed in scintillation vials filled with ScintiSafe Econo F scintillation liquid (Fisher, Waltham, Mass.), and the radioactivity counted. Duplicate samples corresponding to every ligand concentration point were counted.

[2] = tested on: chronic constriction injury (CCI) rats; assay: Thermal hyperalgesia, paw withdrawal latency in CCI model; type: in vivo, rat; settings: 3 mg/kg IP daily, days 1-10 after CCI, vs NS group, P<0.05
Description: CCI procedures on the sciatic nerve of male SD rats were performed as previously described. Briefly, after rats were anesthetized by i.p. injection of sodium pentobarbital (40 mg/kg), the right sciatic nerve of the mid-thigh level was exposed. Chromic gut 4-0 was loosely tied around the nerve for 4 ligatures with about 1 mm between knots. The ligation was performed to just barely reduce the diameter of sciatic nerve. […] In the sham group, the sciatic nerve was exposed without ligation. The incisions of rats were closed in layers. After recovery from anesthesia, rats were housed individually in the clear plastic cages with soft bedding covered with 3-6 cm of sawdust.
Same volume of normal saline (2 ml) was injected in the other two groups at the same time.
The paw withdrawal latency (PWL) to radiant heat was used to evaluate thermal hyperalgesia for nociceptive response as previously described. Rats were placed in transparent plexiglass cage (23×18×13 cm) with a piece of 3-mm-thick glass floor and received heat radiation after acclimating to the environments for 30 minutes. […] A digital timer automatically measured the duration between the starting of heat and the paw withdrawal, which was considered as the PWL. The PWL was measured in 0.1 second and a maximum of 20 seconds exposure to radiation was set to avoid injury. […]

[3] = Solubilizing dezocine in formulations
Source text: All further solutions were created at about pH 4. […] No higher concentrations were attempted with this formulation.

[4] = target: T1, human cloned NET (Homo sapiens, UniProt P23975); assay: Norepinephrine reuptake assay in HEK 293 cells; type: cell-based; settings: mean±SE
T1 construct: expressed in transfected cells
T1 sequence (P23975 whole entry): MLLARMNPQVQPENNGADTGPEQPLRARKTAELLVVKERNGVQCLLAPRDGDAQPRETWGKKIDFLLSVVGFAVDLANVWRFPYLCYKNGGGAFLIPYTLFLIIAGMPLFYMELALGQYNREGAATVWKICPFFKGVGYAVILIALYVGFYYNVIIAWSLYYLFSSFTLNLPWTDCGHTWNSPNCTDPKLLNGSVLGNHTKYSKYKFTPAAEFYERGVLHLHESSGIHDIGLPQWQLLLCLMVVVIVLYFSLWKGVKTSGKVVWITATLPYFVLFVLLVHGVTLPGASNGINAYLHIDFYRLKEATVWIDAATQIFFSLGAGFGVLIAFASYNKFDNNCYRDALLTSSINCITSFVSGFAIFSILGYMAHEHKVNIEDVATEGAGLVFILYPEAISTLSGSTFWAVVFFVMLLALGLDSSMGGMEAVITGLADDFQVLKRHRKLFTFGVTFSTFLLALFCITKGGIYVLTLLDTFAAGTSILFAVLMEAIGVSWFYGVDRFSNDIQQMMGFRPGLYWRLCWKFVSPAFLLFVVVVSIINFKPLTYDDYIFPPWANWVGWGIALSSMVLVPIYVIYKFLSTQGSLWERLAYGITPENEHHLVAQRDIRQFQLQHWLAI
Description: (§1) In brief, Human Embryonic Kidney 293 cells were plated in Poly-L-Lys (PLL) coated 384-well black clear bottom cell culture plates in DMEM+1% dFBS, at a density of 15,000 cells per well in a total volume of 40 μl. The cells were incubated for a minimum of 6 hours before use in the assays. The medium was removed and 20 μL of assay buffer (20 mM HEPES, 1×HBSS, pH 7.40) was added, followed by 5 μL of 5× drug solutions. The plate was incubated at 37° C. for 30 min. After the incubation, 25 μL of dye solution was added and fluorescence intensity was measured after […] at 37° C., using FlexStation II (bottom read mode, Excitation at 440 nm, Emission at 520 nm with 510 nm cut-off) from the Molecular Devices. […] The half maximal inhibitory concentration were determined and expressed as pIC50 (pIC50=−log (IC50)).

[5] = Solubility in 20% cyclodextrin by HPLC; type: physicochemical; settings: aqueous with cosolvent or surfactant or cyclodextrin, thermodynamic from solid, room temperature
Source text: It was filtered with 0.2 μm PTFE syringe filter after stirring for 24 hrs.

[6] = target: T2, Sigma 1 (Homo sapiens, UniProt Q99720); assay: Primary radioligand binding screen; set-up: expressed in transfected cells
Description: (§2) Evidence for interaction was based on the inhibition of the reference ligand-binding signal. […] Briefly, 50 μL aliquots of radioactive ligand (5 nM) were added to wells of a 96-well plate, which contained 25 μL of the reference or test ligands. We employed transfected cell lines expressing mainly human (unless otherwise specified) recombinant receptors, monoamine transporters, or ion channels for crude membrane preparation. Detailed information about our membrane preparation is well known in the art and can be obtained from publicly available protocol online. Crude membrane fractions containing the receptors were resuspended in standard binding buffer and 50 μL aliquots added to each well. The reactions were incubated at room temperature for 1.5 hours to allow for radioligand binding equilibration. Bound radioactivity was harvested by rapid filtration through a 0.3% polyethyleneimine-treated, 96-well filter mats using a 96-well Filtermate harvester. The dried filters were treated with melted scintillant and a Microbeta scintillation counter was utilized to measure the radioactivity retained on the filter.
Target sequence in this assay (Q99720 whole entry): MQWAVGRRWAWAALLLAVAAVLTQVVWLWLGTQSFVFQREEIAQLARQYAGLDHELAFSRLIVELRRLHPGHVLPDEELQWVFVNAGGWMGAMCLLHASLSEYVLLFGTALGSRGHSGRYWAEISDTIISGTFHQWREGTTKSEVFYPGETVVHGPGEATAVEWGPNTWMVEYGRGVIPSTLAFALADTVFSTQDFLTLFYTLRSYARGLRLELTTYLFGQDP

[7] = target: T3, MOR (Homo sapiens, UniProt P35372); assay: biochemical; type: binding
T3 construct: expressed in transfected cells
T3 sequence (P35372 whole entry): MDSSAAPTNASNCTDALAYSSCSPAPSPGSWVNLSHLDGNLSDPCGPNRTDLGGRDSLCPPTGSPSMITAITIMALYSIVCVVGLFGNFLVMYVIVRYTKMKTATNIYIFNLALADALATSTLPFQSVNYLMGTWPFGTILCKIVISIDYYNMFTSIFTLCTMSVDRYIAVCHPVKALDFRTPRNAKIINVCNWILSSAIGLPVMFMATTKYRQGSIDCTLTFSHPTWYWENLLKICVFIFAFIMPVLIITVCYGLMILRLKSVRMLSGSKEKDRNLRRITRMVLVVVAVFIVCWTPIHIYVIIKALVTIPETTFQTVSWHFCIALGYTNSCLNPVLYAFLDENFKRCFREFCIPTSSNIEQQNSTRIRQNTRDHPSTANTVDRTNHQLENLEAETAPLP
Description: as §2

[8] = target: T4, KOR (Homo sapiens, UniProt P41145); assay: biochemical; type: binding
T4 construct: expressed in transfected cells
T4 sequence (P41145 whole entry): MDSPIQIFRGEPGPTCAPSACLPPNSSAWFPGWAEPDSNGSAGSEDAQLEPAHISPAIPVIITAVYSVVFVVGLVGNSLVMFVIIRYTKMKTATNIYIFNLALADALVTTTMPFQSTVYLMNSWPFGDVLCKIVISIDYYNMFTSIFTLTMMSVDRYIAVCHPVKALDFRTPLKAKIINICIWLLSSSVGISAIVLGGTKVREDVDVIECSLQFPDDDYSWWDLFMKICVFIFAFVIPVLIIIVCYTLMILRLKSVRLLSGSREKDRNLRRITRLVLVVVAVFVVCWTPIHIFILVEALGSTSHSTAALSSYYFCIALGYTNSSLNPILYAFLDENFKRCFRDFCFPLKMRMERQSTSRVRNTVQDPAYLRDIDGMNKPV
Description: as §2

[9] = target: T5, H1 (Homo sapiens, UniProt P35367); assay: biochemical; type: binding
T5 construct: expressed in transfected cells
T5 sequence (P35367 whole entry): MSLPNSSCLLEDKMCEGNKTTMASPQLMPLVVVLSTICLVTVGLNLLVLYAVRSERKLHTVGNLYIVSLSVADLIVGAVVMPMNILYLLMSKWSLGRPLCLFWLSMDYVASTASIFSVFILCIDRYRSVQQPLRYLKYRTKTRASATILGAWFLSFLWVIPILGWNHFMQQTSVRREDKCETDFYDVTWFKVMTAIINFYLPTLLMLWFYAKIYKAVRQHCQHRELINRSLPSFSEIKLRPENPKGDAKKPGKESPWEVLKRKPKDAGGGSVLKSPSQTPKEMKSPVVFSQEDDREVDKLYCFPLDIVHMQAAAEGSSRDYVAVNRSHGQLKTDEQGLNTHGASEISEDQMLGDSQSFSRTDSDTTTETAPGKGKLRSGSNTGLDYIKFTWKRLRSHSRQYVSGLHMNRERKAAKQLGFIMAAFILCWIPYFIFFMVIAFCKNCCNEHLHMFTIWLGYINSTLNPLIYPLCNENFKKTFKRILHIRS
Description: as §2

[10] = target: T2, Sigma 1; assay: Molecular target profiling; type: binding
Target sequence in this assay (Q99720 whole entry, species assumed): as the sequence (Q99720 whole entry) above

[11] = tested on: GABAA; assay: Primary radioligand binding screen; set-up: species or system human; settings: dezocine 10 μM
Description: as §2

[12] = target: T6, norepinephrine transporter (NET) (Homo sapiens, UniProt P23975); assay: Secondary radioligand binding assay (affinity); settings: mean±SE
T6 construct: expressed in transfected cells
T6 sequence (P23975 whole entry): as the sequence (P23975 whole entry) above
Description: (§3) The secondary binding assay was performed only when the inhibition in the primary screen was over 50%. A secondary binding assay was utilized to determine the binding affinity for the identified receptor.
(§4) 50 μL of a crude membrane fraction of cells expressing the respective receptors were applied to each well. Reaction incubation, harvesting and radioactivity measurement from the primary assay were repeated. Affinity is expressed as pKi (−log Ki).

[13] = target: T7, delta opioid receptor (Homo sapiens, UniProt P41143); assay: Secondary radioligand binding assay (affinity); settings: mean±SE; read-out: Ki DOR
T7 construct: expressed in transfected cells
T7 sequence (P41143 whole entry): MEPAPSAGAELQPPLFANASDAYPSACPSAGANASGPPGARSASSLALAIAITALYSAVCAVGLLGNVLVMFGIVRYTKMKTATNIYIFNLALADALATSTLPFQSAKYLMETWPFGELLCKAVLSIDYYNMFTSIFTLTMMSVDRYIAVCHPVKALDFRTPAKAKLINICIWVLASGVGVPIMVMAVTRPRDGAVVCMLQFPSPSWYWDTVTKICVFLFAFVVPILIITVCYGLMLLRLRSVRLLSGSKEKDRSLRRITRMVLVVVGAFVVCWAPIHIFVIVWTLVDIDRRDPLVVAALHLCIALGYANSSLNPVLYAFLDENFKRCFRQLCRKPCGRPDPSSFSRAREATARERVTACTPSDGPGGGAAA
Description: as §3, §4

[14] = target: T8, serotonin transporter (SERT) (Homo sapiens, UniProt P31645); assay: Secondary radioligand binding assay (affinity)
T8 construct: expressed in transfected cells
T8 sequence (P31645 whole entry): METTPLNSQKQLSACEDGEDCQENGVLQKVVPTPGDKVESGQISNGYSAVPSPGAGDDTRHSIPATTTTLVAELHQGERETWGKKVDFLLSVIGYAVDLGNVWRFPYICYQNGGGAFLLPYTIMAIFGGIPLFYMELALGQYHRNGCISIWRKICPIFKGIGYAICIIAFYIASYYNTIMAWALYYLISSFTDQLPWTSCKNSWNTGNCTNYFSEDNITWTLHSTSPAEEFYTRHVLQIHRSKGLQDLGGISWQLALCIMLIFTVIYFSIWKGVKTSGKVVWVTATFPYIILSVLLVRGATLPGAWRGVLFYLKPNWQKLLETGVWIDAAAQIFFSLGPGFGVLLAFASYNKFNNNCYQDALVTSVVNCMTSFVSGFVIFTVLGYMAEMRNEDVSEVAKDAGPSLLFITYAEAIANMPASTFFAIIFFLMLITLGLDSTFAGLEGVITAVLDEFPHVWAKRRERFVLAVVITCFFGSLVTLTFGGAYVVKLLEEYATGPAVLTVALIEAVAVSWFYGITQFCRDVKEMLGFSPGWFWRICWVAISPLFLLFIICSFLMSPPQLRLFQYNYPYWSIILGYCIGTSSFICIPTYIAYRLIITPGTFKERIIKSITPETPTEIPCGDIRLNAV
Description: as §3, §4

[15] = tested on: BZP Rat Brain Site; settings: primary binding, dezocine 10 μM
Description: as §2

[16] = hydrobromide salt; cited from earlier work
[17] = target: T9, human cloned SERT (Homo sapiens, UniProt P31645); assay: Serotonin reuptake assay in HEK 293 cells; type: cell-based; settings: mean±SE
T9 construct: expressed in transfected cells
T9 sequence (P31645 whole entry): as above
Description: as §1

[18] = tested on: morphine dependent rats; assay: Astrocyte activation in nucleus accumbens; type: in vivo, rat

kappa opioid receptor, sequence (P41145 whole entry): as the sequence (P41145 whole entry) above

C[C@@]12CCCCC[C@@H](Cc3ccc(O)cc31)[C@@H]2N [Dezocine, (−)-13β-amino-5,6,7,8,9,10,11,12-octahydro-5α-methyl-5,11-methanobenxocyclodecen-31-ol, hydrobromide]
G protein activation in the presence of kappa receptor [1]: no significant G protein activation | paw withdrawal latency (PWL) [2]: significantly improved | Maximum Dezocine Concentration ([3]; 31% Propylene Glycol, 1% Lactic Acid, highest concentration attempted): 30 mg/mL | solubility ([3]; 31% propylene glycol, 6% PVOH solution, pH 4, aqueous with cosolvent or surfactant or cyclodextrin): 10 mg/mL | Maximum Dezocine Concentration ([3]; 50% Propylene Glycol): 2 mg/mL | Maximum Dezocine Concentration ([3]; Ethanol (200-proof), highest concentration attempted): 1 mg/mL | Maximum Dezocine Concentration ([3]; Propylene Glycol (pure)): 10 mg/mL | Maximum Dezocine Concentration ([3]; Water): insoluble | solubility ([3]; water): < 1 mg/mL | pIC50 at NET (norepinephrine reuptake) [4]: 5.68±0.11 | solubility at 24 h ([5]; 20% 2-Hydroxypropyl-β-cyclodextrin (HPBCD)): 18 ± 1 mg/mL | solubility at 24 h ([5]; 20% 2-Hydroxypropyl-γ-cyclodextrin (HPGCD)): 24 ± 1 mg/mL | inhibition at 10 µM [6]: 21.7% | inhibition at 10 µM [7]: 89.6% | inhibition at 10 µM [8]: 91.3% | inhibition at 10 µM [9]: 20.7% | interaction with sigma 1 receptor [10]: interact with sigma 1 receptor | % inhibition [11]: −10.1% | pKi NET [12]: 6.00±0.10 | Ki [13]: 527 ± 70 nM | Ki ([14]; FIG. 12): 111 nM | pKi SERT ([14]; mean±SE): 6.96±0.08 | % inhibition [15]: 11.5% | solubility of the salt [16]: 20 mg/mL | pIC50 of SERT (serotonin reuptake) [17]: 5.86±0.17 | astrocyte activation in nucleus accumbens [18]: significantly inhibited
